“And” between values parts separate entries of the source, which are not always exact repeats. Equal entries are not always repeated.
What was measured:
[1] = biological target: T1, Receptor-interacting serine/threonine-protein kinase 3 (Homo sapiens, UniProt Q9Y572); experiment: Inhibition of RIPK3 (unknown origin) expressed in NIH3T3 cells assessed as inhibition of dimerizer-induced pMLKL level by Western blot analysis; assay type: cell-based
[2] = biological target: Receptor-interacting serine/threonine-protein kinase 2 (Homo sapiens) (UniProt O43353); experiment: Inhibition of RIPK2 (unknown origin) at 1 uM relative to control
Sequence of Receptor-interacting serine/threonine-protein kinase 2 (Homo sapiens) (O43353 whole entry): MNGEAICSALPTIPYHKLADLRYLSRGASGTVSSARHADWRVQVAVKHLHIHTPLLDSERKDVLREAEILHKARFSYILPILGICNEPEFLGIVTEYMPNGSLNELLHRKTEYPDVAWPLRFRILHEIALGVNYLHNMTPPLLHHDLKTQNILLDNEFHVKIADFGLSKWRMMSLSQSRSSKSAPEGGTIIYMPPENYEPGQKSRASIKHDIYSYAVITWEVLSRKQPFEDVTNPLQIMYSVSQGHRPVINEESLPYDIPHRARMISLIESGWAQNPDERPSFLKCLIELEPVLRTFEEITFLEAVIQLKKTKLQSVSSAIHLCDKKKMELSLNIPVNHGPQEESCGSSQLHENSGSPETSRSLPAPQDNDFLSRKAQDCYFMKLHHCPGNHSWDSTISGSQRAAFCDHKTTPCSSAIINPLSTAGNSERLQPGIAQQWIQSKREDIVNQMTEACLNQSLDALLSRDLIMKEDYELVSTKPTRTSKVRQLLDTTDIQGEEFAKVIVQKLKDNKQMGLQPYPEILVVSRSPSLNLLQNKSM

[3] = AUC (last) in 2 hrs fasted CD-1 mouse at 3 mg/kg, po; assay type: ADME, organism-based; design: dose 3 mg/kg, route po; conditions: in vivo
[4] = Clearance in 2 hrs fasted CD-1 mouse at 3 mg/kg, po; assay type: ADME, organism-based; conditions: in vivo
[5] = Volume of distribution at steady state in 2 hrs fasted CD-1 mouse at 3 mg/kg, po; assay type: ADME, organism-based; conditions: in vivo
[6] = Oral bioavailability in 2 hrs fasted CD-1 mouse at 3 mg/kg; assay type: ADME, organism-based; conditions: in vivo
[7] = AUC in ICR mouse at 10 mg/kg, po; assay type: ADME, organism-based; design: dose 10 mg/kg, route po; conditions: in vivo
CYP2C19 = CYP2C19 (Homo sapiens, UniProt P33261); experiment: Inhibition of CYP2C19 (unknown origin) at 10 uM; assay type: ADME
Sequence of CYP2C19 (P33261 whole entry): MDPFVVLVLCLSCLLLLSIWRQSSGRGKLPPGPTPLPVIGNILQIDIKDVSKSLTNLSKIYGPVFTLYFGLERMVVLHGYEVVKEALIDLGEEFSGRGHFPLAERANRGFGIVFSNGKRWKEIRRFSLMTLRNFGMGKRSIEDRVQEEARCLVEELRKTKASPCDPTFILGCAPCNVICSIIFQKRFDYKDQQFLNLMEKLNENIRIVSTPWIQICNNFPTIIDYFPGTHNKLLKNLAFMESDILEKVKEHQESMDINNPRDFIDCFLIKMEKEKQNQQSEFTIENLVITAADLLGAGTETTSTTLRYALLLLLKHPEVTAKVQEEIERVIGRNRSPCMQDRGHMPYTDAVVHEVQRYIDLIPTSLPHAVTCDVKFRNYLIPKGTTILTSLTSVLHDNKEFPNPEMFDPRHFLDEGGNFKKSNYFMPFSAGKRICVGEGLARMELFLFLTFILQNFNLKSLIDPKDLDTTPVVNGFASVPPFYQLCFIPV

[8] = Metabolic stability in rat liver microsomes assessed as intrinsic clearance; assay type: ADME, Microsome; conditions: read-out: CLH
[9] = Metabolic stability in mouse liver microsomes assessed as half life; assay type: ADME, Microsome
[10] = Clearance in ICR mouse at 2 mg/kg, iv; assay type: ADME, organism-based; conditions: in vivo
[11] = Volume of distribution in ICR mouse at 2 mg/kg, iv; assay type: ADME, organism-based; conditions: in vivo
CYP1A2 = biological target: T2, CYP1A2 (Homo sapiens, UniProt P05177); experiment: Inhibition of CYP1A2 (unknown origin) at 10 uM; assay type: ADME
T2 sequence (P05177 whole entry): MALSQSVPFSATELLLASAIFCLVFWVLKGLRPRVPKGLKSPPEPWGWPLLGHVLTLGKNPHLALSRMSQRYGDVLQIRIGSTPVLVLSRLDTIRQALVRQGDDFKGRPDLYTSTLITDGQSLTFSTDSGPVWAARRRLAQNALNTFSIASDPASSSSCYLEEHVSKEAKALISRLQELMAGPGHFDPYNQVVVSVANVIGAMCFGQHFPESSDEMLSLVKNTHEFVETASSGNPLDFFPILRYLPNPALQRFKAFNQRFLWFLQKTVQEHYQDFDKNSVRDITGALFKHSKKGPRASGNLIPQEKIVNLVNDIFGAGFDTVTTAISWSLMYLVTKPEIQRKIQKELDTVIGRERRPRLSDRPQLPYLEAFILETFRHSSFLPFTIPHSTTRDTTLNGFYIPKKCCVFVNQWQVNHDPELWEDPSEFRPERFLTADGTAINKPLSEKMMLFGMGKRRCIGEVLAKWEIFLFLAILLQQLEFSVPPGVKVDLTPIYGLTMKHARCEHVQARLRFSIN

[12] = biological target: Voltage-gated inwardly rectifying potassium channel KCNH2 (Homo sapiens, UniProt Q12809); experiment: Inhibition of hERG at 10 uM; assay type: toxicity
Sequence of Voltage-gated inwardly rectifying potassium channel KCNH2 (Q12809 whole entry): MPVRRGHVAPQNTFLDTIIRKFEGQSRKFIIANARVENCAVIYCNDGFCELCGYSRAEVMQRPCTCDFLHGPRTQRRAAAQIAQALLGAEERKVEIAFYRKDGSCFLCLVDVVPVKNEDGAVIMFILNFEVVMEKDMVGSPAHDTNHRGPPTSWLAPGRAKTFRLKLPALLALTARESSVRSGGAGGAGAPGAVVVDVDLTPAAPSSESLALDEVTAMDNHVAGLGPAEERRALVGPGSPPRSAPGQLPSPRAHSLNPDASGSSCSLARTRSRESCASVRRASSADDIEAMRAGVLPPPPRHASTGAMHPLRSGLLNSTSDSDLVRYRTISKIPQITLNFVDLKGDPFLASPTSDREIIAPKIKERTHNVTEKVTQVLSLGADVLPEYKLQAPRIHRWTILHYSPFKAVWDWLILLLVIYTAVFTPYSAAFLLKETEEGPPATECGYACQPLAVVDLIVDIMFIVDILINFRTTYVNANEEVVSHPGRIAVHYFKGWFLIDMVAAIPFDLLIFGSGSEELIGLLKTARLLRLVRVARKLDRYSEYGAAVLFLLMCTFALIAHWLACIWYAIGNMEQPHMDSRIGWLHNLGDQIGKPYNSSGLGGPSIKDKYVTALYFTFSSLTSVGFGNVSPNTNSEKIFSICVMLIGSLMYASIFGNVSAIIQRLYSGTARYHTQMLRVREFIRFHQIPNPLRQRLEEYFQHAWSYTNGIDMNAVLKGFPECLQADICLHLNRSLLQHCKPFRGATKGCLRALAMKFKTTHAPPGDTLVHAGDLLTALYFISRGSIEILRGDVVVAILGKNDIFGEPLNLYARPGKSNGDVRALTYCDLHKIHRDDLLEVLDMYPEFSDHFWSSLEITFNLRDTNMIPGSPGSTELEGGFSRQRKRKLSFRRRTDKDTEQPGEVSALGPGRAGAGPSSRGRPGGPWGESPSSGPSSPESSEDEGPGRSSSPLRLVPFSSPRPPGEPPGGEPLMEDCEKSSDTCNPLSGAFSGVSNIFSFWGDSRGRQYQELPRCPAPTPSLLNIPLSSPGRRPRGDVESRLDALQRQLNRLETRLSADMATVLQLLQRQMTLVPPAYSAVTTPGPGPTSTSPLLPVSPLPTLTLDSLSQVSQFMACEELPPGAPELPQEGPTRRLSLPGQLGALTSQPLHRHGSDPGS

CYP2C9 = CYP2C9 (Homo sapiens, UniProt P11712); experiment: Inhibition of CYP2C9 (unknown origin) at 10 uM; assay type: ADME
Sequence of CYP2C9 (P11712 whole entry): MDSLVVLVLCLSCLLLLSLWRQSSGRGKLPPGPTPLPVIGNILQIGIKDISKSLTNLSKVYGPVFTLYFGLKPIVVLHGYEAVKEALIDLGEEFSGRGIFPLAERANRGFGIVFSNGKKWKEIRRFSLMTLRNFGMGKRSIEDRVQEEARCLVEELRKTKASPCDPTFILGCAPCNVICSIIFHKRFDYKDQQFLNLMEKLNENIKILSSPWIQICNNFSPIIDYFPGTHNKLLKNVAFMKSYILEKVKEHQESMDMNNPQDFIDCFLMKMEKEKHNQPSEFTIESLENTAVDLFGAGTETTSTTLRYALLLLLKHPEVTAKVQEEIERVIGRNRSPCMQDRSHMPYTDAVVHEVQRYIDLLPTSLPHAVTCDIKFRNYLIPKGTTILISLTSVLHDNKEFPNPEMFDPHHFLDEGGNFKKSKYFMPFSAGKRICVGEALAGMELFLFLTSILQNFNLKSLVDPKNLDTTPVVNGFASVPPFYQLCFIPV

CYP3A4 = CYP3A4 (Homo sapiens, UniProt P08684); experiment: Inhibition of CYP3A4 (unknown origin) at 10 uM; assay type: ADME
Sequence of CYP3A4 (P08684 whole entry): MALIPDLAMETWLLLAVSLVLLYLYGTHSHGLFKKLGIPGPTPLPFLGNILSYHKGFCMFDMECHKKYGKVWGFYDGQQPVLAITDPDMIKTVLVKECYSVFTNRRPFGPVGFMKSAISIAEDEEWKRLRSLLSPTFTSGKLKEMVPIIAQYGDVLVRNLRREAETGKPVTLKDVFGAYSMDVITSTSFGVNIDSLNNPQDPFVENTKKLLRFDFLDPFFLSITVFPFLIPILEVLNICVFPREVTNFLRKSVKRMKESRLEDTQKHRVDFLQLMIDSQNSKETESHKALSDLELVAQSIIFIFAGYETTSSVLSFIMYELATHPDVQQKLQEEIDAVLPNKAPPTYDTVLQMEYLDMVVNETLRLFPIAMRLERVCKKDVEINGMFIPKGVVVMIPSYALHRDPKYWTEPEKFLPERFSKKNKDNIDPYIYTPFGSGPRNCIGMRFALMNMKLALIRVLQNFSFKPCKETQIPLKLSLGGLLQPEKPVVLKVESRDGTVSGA

[13] = Metabolic stability in mouse liver microsomes assessed as intrinsic clearance; assay type: ADME, Microsome; conditions: read-out: CLH
CYP2D6 = CYP2D6 (Homo sapiens, UniProt P10635); experiment: Inhibition of CYP2D6 (unknown origin) at 10 uM; assay type: ADME
Sequence of CYP2D6 (P10635 whole entry): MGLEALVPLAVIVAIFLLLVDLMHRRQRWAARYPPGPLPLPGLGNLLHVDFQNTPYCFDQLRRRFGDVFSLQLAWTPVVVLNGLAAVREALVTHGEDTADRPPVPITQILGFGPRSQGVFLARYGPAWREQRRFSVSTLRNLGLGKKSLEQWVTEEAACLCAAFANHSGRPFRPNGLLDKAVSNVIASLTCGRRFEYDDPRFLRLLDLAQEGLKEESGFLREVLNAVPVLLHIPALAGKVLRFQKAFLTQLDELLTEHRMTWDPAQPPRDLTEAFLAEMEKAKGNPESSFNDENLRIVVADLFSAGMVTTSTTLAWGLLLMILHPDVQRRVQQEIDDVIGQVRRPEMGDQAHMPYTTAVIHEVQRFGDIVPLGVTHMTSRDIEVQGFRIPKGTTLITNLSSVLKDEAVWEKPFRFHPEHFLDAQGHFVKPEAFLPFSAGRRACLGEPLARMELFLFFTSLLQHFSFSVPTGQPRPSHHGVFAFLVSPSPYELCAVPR

[14] = Metabolic stability in rat liver microsomes assessed as half life; assay type: ADME, Microsome
[15] = Half life in ICR mouse at 2 mg/kg, iv; assay type: ADME, organism-based; conditions: in vivo
[16] = Anti-necroptotic activity in mouse dermal fibroblast assessed as inhibition in T/S/Q induced necroptosis measured by flow cytometry; assay type: functional, cell-based
Jurkat [17] = experiment: Anti-necroptotic activity in FADD-deficient human Jurkat cells assessed as reduction in cell growth preincubated for 30 mins followed by TNFalpha stimulation incubated overnight by CellTiter-Glo assay; assay type: functional, cell-based
[18] = Anti-necroptotic activity in mouse BMDM cells assessed as inhibition of TNF/zVAD.fmk induced necroptosis pretreated for 30 mins measured after 19 to 21 hrs by CellTiter-Glo Luminescent Cell Viability assay
[19] = Half life in C57BL/6 mouse plasma at 5 mg/kg, iv; assay type: ADME, organism-based
[20] = Volume of distribution in C57BL/6 mouse plasma at 5 mg/kg, iv; assay type: ADME, organism-based
[21] = Clearance in C57BL/6 mouse plasma at 5 mg/kg, iv; assay type: ADME, organism-based
[22] = biological target: T3, Receptor-interacting serine/threonine-protein kinase 1 (Homo sapiens, UniProt Q13546); experiment: Binding affinity to RIPK1 (unknown origin) by ADP-GlO assay
T3 sequence (Q13546 whole entry): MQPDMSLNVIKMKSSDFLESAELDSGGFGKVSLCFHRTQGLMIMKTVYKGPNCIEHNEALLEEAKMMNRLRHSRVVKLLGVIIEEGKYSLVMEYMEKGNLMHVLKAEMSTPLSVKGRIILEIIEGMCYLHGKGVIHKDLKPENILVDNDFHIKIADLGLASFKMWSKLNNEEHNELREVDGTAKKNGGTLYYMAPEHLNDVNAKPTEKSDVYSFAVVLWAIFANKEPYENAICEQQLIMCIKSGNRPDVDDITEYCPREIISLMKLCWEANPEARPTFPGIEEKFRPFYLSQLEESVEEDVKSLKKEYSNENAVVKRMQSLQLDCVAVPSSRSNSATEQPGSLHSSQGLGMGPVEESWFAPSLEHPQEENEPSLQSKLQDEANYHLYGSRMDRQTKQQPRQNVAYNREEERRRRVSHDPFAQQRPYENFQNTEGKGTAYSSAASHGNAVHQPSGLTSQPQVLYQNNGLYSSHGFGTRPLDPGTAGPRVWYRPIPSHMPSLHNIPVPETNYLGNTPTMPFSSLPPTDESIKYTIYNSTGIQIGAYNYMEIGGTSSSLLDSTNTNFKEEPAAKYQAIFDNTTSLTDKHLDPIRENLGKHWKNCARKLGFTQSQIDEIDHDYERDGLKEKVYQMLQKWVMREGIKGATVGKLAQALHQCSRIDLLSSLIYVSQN

Jurkat [23] = experiment: Anti-necroptotic activity in FADD null human Jurkat cells assessed as inhibition of T/S/Z induced necroptosis by CellTiter-Glo Luminescent Cell Viability assay; assay type: functional, cell-based
HT-29 = experiment: Anti-necroptotic activity in human HT-29 cells assessed as inhibition of T/S/Z induced necroptosis by CellTiter-Glo Luminescent Cell Viability assay; assay type: functional, cell-based
[24] = biological target: T1, Receptor-interacting serine/threonine-protein kinase 3; experiment: Inhibition of human RIPK3 using MBP as substrate by [gamma33-ATP] based radiometric assay

T1 sequence (Q9Y572 whole entry): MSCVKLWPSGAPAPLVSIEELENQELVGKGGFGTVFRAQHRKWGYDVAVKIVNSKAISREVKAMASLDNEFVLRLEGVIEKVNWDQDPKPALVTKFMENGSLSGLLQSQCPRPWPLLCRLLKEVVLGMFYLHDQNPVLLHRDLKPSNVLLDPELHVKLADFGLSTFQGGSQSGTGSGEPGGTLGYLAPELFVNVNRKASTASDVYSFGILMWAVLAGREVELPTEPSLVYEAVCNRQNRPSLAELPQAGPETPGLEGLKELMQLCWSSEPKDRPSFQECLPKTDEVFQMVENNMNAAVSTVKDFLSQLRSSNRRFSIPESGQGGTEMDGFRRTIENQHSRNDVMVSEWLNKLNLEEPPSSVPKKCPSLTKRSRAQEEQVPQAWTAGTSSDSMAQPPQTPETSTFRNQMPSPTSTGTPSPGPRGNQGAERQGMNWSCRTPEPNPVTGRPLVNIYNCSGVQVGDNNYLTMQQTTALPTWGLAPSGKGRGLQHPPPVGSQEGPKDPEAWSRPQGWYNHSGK

Cc1ccc(O)cc1Nc1ccnc2cc(-c3ccccn3)ccc12
EC50 [1]: 73.6 nM

CC(C)S(=O)(=O)c1ccc2nccc(Nc3ccc4scnc4c3)c2c1
inhibition [2]: 76%

CN1C(=O)[C@@H](NC(=O)c2nc(Cc3ccccc3)n[nH]2)COc2ccc(C#CC3CC3)cc21
AUClast [3]: 15000 ng·h/mL | CL/F [4]: 3.54 mL/min/kg | Vdss [5]: 0.902 L/kg | bioavailability [6]: 99%

Cl.O=S1(=O)C=C(C2CC2)c2cc3nccc(Nc4ccc5scnc5c4)c3cc21
AUC [7]: 8200 ng·h/mL | inhibition at 10 µM (CYP2C19): < 10% | CLint scaled [8]: 67 mL/min/kg | half-life [9]: 26 min | clearance [10]: 33 mL/min/kg | Vd [11]: 4.4 L/kg | inhibition at 10 µM (CYP1A2): < 10% | IC50 [12]: > 10000 nM | inhibition at 10 µM (CYP2C9): < 10% | inhibition at 10 µM (CYP3A4): < 10% | CLint scaled [13]: 212 mL/min/kg | inhibition at 10 µM (CYP2D6): < 10% | half-life [14]: 36 min | half-life [15]: 90 min

CN(c1ccc(NC(=O)Nc2ccc(OC(F)(F)F)cc2)cc1)c1ccnc(Nc2cccc(S(N)(=O)=O)c2)n1 [GW806742X]
IC50 [16]: < 50 nM | EC50 (Jurkat [17]): 1850 nM

CC(C)(C)C(=O)N1N=CC[C@H]1c1ccccc1
IC50 [18]: 3 nM

Cc1cc(-c2cnc(N)c3c(-c4ccc5scnc5c4)csc23)n(C)n1
inhibition [2]: 84%

COc1cc2c(cn1)N(C)C(=O)[C@@H](NC(=O)c1nc3n(n1)[C@H](c1ccccc1)CC3)CC2
half-life [19]: 31.8 min | Vd [20]: 1.84 L/kg | clearance [21]: 49.2 mL/min/kg

N#Cc1c(Oc2ccc(F)c(NC(=O)Cc3cccc(C(F)(F)F)c3)c2)ccc2nc(NC(=O)C3CC3)sc12
Kd [22]: 105 nM

COc1nccnc1NS(=O)(=O)c1ccc(NC(=O)/C=C/c2ccc([N+](=O)[O-])s2)cc1
IC50 (Jurkat [23]): < 1000 nM | IC50 (HT-29): < 1000 nM and 124 nM

Cc1ccc(Oc2ccnc3cc(-c4cnn(C5CCNCC5)c4)ccc23)cc1
EC50 [24]: 20.8 nM

Reference: ChEMBL document CHEMBL5338727, “From (Tool)Bench to Bedside: The Potential of Necroptosis Inhibitors” (J Med Chem, 2023)
